GI50 and TGI data for eleven compounds are collected here from PubChem BioAssay (NCI).

“And” between values parts separate entries of the source, which are not always exact repeats. Equal values may be shown once.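 Method: 48-hour compound exposure of cells in 96-well plates, five concentrations, linear interpolation of endpoints. Here, GI50 denotes the concentration required for 50% inhibition of growth. TGI denotes the concentration required for complete inhibition of growth.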

Test systems include A549 NSCLC; BT-549 breast; DU-145 prostate; EKVX NSCLC; K-562 leukemia; SN12C renal; U251 CNS; UACC-257 melanoma; UACC-62 melanoma; UO-31 renal.
Common to all, as to assay: growth of human tumour cells (NCI), 48 h

With `COc1cccc2c1C(=O)c1c(O)c3c(c(O)c1C2=O)C[C@@](O)(C(=O)CO)C[C@@H]3OC1C[C@H](N)[C@H](O)[C@H](C)O1` (stereo partly specified), the GI50 with A549 NSCLC was 0.0355 µM; with BT-549 breast, 0.059 µM; in the test with DU-145 prostate it was 0.0684 µM; in the test with EKVX NSCLC it was 0.201 µM; with K-562 leukemia it was 0.089 µM; in the test on SN12C renal it was 0.0253 µM. The GI50 in the test on U251 CNS is 0.025 µM; in the test with UACC-257 melanoma it was 0.102 µM; in the test with UACC-62 melanoma, 0.0346 µM; in the test with UO-31 renal, 0.152 µM. The TGI in the test on A549 NSCLC is greater than 50 µM; in the test on BT-549 breast it was 0.241 µM; in the test with EKVX NSCLC, 5.28 µM; in the test with K-562 leukemia it was 3.18 µM; in the test on SN12C renal, 7.44 µM; in the test on U251 CNS, 2.25 µM. The figures for the TGI with UACC-257 melanoma, with UACC-62 melanoma and in the test with UO-31 renal were 1.8 µM, 0.117 µM and 1.14 µM, respectively.
With `COc1cc(/C=C2\CN(C)C/C(=C\c3cc(CN4CCCCC4)c(O)c(OC)c3)C2=O)cc(CN2CCCCC2)c1O`, the GI50 in the test on A549 NSCLC was 3.76 µM; in the test on BT-549 breast, 4.61 µM; with DU-145 prostate it was 3.88 µM; with EKVX NSCLC it was 4.57 µM; in the test on K-562 leukemia, 3.12 µM; in the test on SN12C renal, 3.24 µM. The GI50 in the test with U251 CNS is 3.1 µM; in the test on UACC-257 melanoma, 7.99 µM; in the test on UACC-62 melanoma, 7.2 µM; with UO-31 renal, 3.78 µM. Besides, the TGI in the test with A549 NSCLC amounted to 16.1 µM; with BT-549 breast, 16.3 µM; in the test with DU-145 prostate, 13.7 µM; with EKVX NSCLC it was 17.6 µM; in the test on K-562 leukemia it was 35.2 µM; in the test on SN12C renal it was 12.8 µM. Moreover, the TGI stood at 13.2 µM in the test with U251 CNS, 22 µM in the test on UACC-257 melanoma, 20.3 µM in the test with UACC-62 melanoma and 17.7 µM in the test on UO-31 renal.
Regarding `O=C(N/N=C/c1ccc([N+](=O)[O-])cc1)c1ccc2nc(-c3ccc(Cl)cc3)[nH]c2c1`, the GI50 was 3.98 µM with A549 NSCLC; 2.84 µM in the test with BT-549 breast; 3.99 µM with DU-145 prostate; 3.2 µM in the test on EKVX NSCLC; 0.499 µM in the test on K-562 leukemia; 3.14 µM in the test with SN12C renal. Moreover, the GI50 was 2.91 µM in the test with U251 CNS, 3.37 µM in the test on UACC-257 melanoma, 3.51 µM in the test with UACC-62 melanoma and 6.05 µM in the test with UO-31 renal. For the same compound, the TGI in the test on A549 NSCLC stood at 24.1 µM; with BT-549 breast it was 9.71 µM; in the test on DU-145 prostate, 21.4 µM; in the test with EKVX NSCLC it was 21.2 µM; in the test on K-562 leukemia, 8.44 µM; in the test with SN12C renal, 18.1 µM. In addition, the TGI was 10.8 µM in the test with U251 CNS, 15.4 µM in the test on UACC-257 melanoma, 14.9 µM in the test on UACC-62 melanoma and 38.3 µM with UO-31 renal.
Take `Cc1cc(Cc2cc(C)cc(C(C)(C)C)c2O)c(O)c(C(C)(C)C)c1`: the GI50 in the test on A549 NSCLC is 3.86 µM; with BT-549 breast, 11 µM; with DU-145 prostate, 4.9 µM; in the test with EKVX NSCLC, 2.81 µM; in the test with K-562 leukemia, 3.95 µM; with SN12C renal it was 11.9 µM. Moreover, the GI50 in the test on U251 CNS was 5.74 µM; in the test with UACC-257 melanoma, 9.55 µM; with UACC-62 melanoma, 10.4 µM; in the test with UO-31 renal, 4.58 µM. Besides, the TGI with A549 NSCLC was determined as 13.2 µM; with BT-549 breast, 23.9 µM; in the test with DU-145 prostate, 16.6 µM; with EKVX NSCLC, 12.1 µM; with K-562 leukemia it was 19.8 µM; in the test with SN12C renal, 24.1 µM. In addition, the TGI stood at 17.5 µM in the test on U251 CNS, 21.8 µM with UACC-257 melanoma, 22.2 µM in the test on UACC-62 melanoma and 19 µM in the test on UO-31 renal.
On to `O=c1[nH]cnc2[nH]ncc12`, for which the GI50 with A549 NSCLC was 1940 µM; in the test with BT-549 breast, 578 µM; in the test on DU-145 prostate it was > 92.6 µM and 189 µM; with EKVX NSCLC, 785 µM; in the test with K-562 leukemia, 179 µM; in the test on SN12C renal, 485 µM. The GI50 with U251 CNS was 1560 µM; in the test on UACC-257 melanoma, 788 µM; with UACC-62 melanoma, 166 µM; with UO-31 renal, > 64.9 µM and 525 µM. The TGI is greater than 5000 µM in the test with A549 NSCLC; greater than 5000 µM in the test with BT-549 breast; greater than 2150 µM in the test on DU-145 prostate; greater than 5000 µM in the test with EKVX NSCLC; greater than 5000 µM in the test with K-562 leukemia; greater than 5000 µM in the test with SN12C renal. Besides, the TGI was greater than 4470 µM in the test on U251 CNS, greater than 5000 µM in the test with UACC-257 melanoma, greater than 2560 µM in the test with UACC-62 melanoma and greater than 5000 µM in the test with UO-31 renal.
As to `CO[C@@H]1/C=C(C)/C=C/[C@@H](C)/C=C(\C)C(=O)OC(/C(C)=C/C=C(\C)CNC(=O)[C@H](CO)NC=O)[C@@H](C)/C=C/C=C/[C@H](OC)CC/C=C(C)/C=C/C1` (stereo partly specified), the GI50 is 0.00881 µM in the test on A549 NSCLC; less than 0.005 µM in the test with BT-549 breast; 0.169 µM in the test on DU-145 prostate; 5.56 µM in the test on EKVX NSCLC; less than 0.005 µM with K-562 leukemia; 0.182 µM with SN12C renal. The GI50 in the test on U251 CNS was less than 0.005 µM; in the test on UACC-257 melanoma, 0.0238 µM; in the test on UACC-62 melanoma, less than 0.005 µM; in the test with UO-31 renal it was less than 0.005 µM. Moreover, the TGI in the test with A549 NSCLC is 0.0242 µM; in the test on BT-549 breast it was 12.1 µM; in the test on DU-145 prostate, 14.5 µM; with EKVX NSCLC it was 15.6 µM; in the test with K-562 leukemia it was 0.238 µM; with SN12C renal, 12.2 µM. For the same compound, the TGI in the test on U251 CNS is 0.214 µM; with UACC-257 melanoma, 0.0365 µM; in the test on UACC-62 melanoma, less than 0.005 µM; in the test with UO-31 renal, 0.425 µM.
As for `COc1cc2c[n+](C)c3c4ccccc4ccc3c2cc1OC` (tested in a mixture with another compound), the TGI in the test on A549 NSCLC was 39.3 µM; in the test on BT-549 breast, 24.6 µM; with DU-145 prostate, 69.6 µM; in the test with EKVX NSCLC it was 41.8 µM; in the test on SN12C renal it was 5.58 µM and 17.7 µM; with U251 CNS, 6.36 µM and 16.9 µM. Also, the TGI was 6.15 µM and 49 µM in the test on UACC-257 melanoma; 20.3 µM in the test with UACC-62 melanoma; greater than 100 µM in the test with UO-31 renal. Moreover, the GI50 in the test on BT-549 breast is 11 µM; in the test with DU-145 prostate it was 13.5 µM; in the test on EKVX NSCLC, 1.47 µM; in the test with K-562 leukemia, 2.29 µM; in the test on SN12C renal, 1.07 µM; in the test with U251 CNS, 1.31 µM. Also, the GI50 is 2.11 µM in the test with UACC-257 melanoma and 3.08 µM in the test on UACC-62 melanoma.
For `c1ccc(-n2nnnc2-c2cccc3ccccc23)cc1`, the GI50 in the test on A549 NSCLC was 1.04 µM; in the test on BT-549 breast, 0.755 µM; in the test with DU-145 prostate, 0.92 µM; in the test with EKVX NSCLC, 2.42 µM; in the test with K-562 leukemia, 0.377 µM; in the test with SN12C renal, 1.33 µM. For the same compound, the GI50 in the test with U251 CNS was 0.536 µM; in the test with UACC-257 melanoma, 27.8 µM; with UACC-62 melanoma it was 0.666 µM; in the test on UO-31 renal, 2.16 µM. Besides, the TGI in the test with A549 NSCLC is greater than 100 µM; in the test on BT-549 breast it was greater than 61.2 µM; with DU-145 prostate, 6.86 µM; with EKVX NSCLC, greater than 100 µM; in the test on K-562 leukemia, greater than 100 µM; in the test on SN12C renal it was greater than 100 µM. For the same compound, the TGI was greater than 48.1 µM in the test with U251 CNS, greater than 100 µM in the test on UACC-257 melanoma, greater than 100 µM in the test with UACC-62 melanoma and 61.1 µM in the test on UO-31 renal.
Turning to `O=C(O)c1cc(N=Cc2ccccc2O)cc(C(=O)O)c1`, the TGI in the test with A549 NSCLC, in the test on BT-549 breast, with DU-145 prostate, in the test with EKVX NSCLC, in the test with K-562 leukemia and in the test with SN12C renal was greater than 100 µM in each case. The TGI in the test on U251 CNS, in the test with UACC-257 melanoma, with UACC-62 melanoma and in the test on UO-31 renal was greater than 100 µM each time.
On to `COc1cccc(/C=C/c2cnc3ccccc3n2)c1OC`, for which the TGI with A549 NSCLC is greater than 100 µM; with BT-549 breast, 53.1 µM; with DU-145 prostate it was greater than 100 µM; in the test with EKVX NSCLC it was greater than 100 µM; in the test with K-562 leukemia, greater than 100 µM; in the test with SN12C renal it was greater than 100 µM. For the same compound, the TGI in the test on U251 CNS was greater than 100 µM; in the test with UACC-257 melanoma, greater than 100 µM; in the test with UACC-62 melanoma it was 91.2 µM; in the test with UO-31 renal, greater than 100 µM.
For the compound `CN(C)C(=O)c1cc2cnc(Nc3ccc(-c4csc5c(=O)cc(N6CCOCC6)oc45)cc3)nc2n1C1CCCC1`, the GI50 in the test on A549 NSCLC was 0.213 µM; with BT-549 breast, 0.166 µM; with DU-145 prostate, 0.265 µM; in the test with EKVX NSCLC it was 0.214 µM; in the test on K-562 leukemia it was 0.285 µM; with SN12C renal, 0.21 µM. Moreover, the GI50 in the test on U251 CNS was 0.2 µM; in the test on UACC-257 melanoma, 0.269 µM; with UACC-62 melanoma, 0.129 µM; in the test on UO-31 renal it was 0.0537 µM. For the same compound, the TGI is greater than 100 µM in the test on A549 NSCLC; 0.686 µM in the test on BT-549 breast; 1.32 µM in the test with DU-145 prostate; 1.98 µM with EKVX NSCLC; greater than 100 µM with K-562 leukemia; 14.6 µM in the test on SN12C renal. Further, the TGI was greater than 100 µM with U251 CNS, 0.909 µM in the test on UACC-257 melanoma, 0.367 µM in the test with UACC-62 melanoma and 0.287 µM in the test with UO-31 renal.
